Experimental data taken from PubChem BioAssay AID1918993 (Molecular Pharmacology Branch, DTP, NCI, 2023).
Where “and” joins values, the source holds several entries; their conditions need not be identical. Equal values may be shown once. Blank lines part the entries; values can stand above or below the molecule they belong to.

Tested on: 233499-124-R-J3-PDC complex spheroid growth
Experiment: Anticancer human tumor 233499-124-R-J3-PDC patient-derived colon adenocarcinoma cell line growth inhibition [AhR]
Settings: for viability, T/C: stronger effect = lower value
In short: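 Spheroids combined tumor cells with HUVEC endothelial cells and human MSCs as stroma. AhR antagonists were paired with standard or investigational drugs, each dosed in half-log steps down from near clinical Cmax, or from 10 microM where Cmax was unknown.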

[1] = curve of first compound, second compound 0.1 µM
[2] = curve of first compound, second compound 0.316 µM
[3] = curve of first compound, second compound 1 µM
[4] = curve of first compound, second compound 3.16 µM
[5] = curve of first compound, second compound 10 µM
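Further: spheroids exposed to agents for seven days before reading.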

IC50 [1]: > 10 µM | IC50 [2]: > 10 µM | IC50 [3]: > 10 µM | IC50 [4]: > 10 µM | IC50 [5]: < 0.0316 µM
Structure (SMILES): CC1COCCN1c1cc(C2(S(C)(=N)=O)CC2)nc(-c2ccnc3[nH]ccc23)n1 (centres undefined) + Cc1cncc(-c2nc(NCCc3c[nH]c4ccccc34)c3ncn(C(C)C)c3n2)c1
viability, T/C (second compound 0.1 µM, first compound 0.0316 µM): 99% | viability, T/C (second compound 0.1 µM, first compound 0.1 µM): 90.3% | viability, T/C (second compound 0.1 µM, first compound 0.316 µM): 95.1% | viability, T/C (second compound 0.1 µM, first compound 1 µM): 95.1% | viability, T/C (second compound 0.1 µM, first compound 3.16 µM): 93% | viability, T/C (second compound 0.1 µM, first compound 10 µM): 81.2% | viability, T/C (second compound 0.316 µM, first compound 0.0316 µM): 80.7% | viability, T/C (second compound 0.316 µM, first compound 0.1 µM): 71% | viability, T/C (second compound 0.316 µM, first compound 0.316 µM): 61.6% | viability, T/C (second compound 0.316 µM, first compound 1 µM): 91.2% | viability, T/C (second compound 0.316 µM, first compound 3.16 µM): 92.7% | viability, T/C (second compound 0.316 µM, first compound 10 µM): 78.1% | viability, T/C (second compound 1 µM, first compound 0.0316 µM): 73.9% | viability, T/C (second compound 1 µM, first compound 0.1 µM): 70.1% | viability, T/C (second compound 1 µM, first compound 0.316 µM): 78.7% | viability, T/C (second compound 1 µM, first compound 1 µM): 77.2% | viability, T/C (second compound 1 µM, first compound 3.16 µM): 63.3% | viability, T/C (second compound 1 µM, first compound 10 µM): 64.7% | viability, T/C (second compound 3.16 µM, first compound 0.0316 µM): 81.8% | viability, T/C (second compound 3.16 µM, first compound 0.1 µM): 76% | viability, T/C (second compound 3.16 µM, first compound 0.316 µM): 81.8% | viability, T/C (second compound 3.16 µM, first compound 1 µM): 83.1% | viability, T/C (second compound 3.16 µM, first compound 3.16 µM): 71.3% | viability, T/C (second compound 3.16 µM, first compound 10 µM): 59.7% | viability, T/C (second compound 10 µM, first compound 0.0316 µM): 11.2% | viability, T/C (second compound 10 µM, first compound 0.1 µM): 14.3% | viability, T/C (second compound 10 µM, first compound 0.316 µM): 20% | viability, T/C (second compound 10 µM, first compound 1 µM): 15.1% | viability, T/C (second compound 10 µM, first compound 3.16 µM): 14% | viability, T/C (second compound 10 µM, first compound 10 µM): 11.1%

IC50 [1]: > 3 µM | IC50 [2]: > 3 µM | IC50 [3]: > 3 µM | IC50 [4]: > 3 µM | IC50 [5]: > 3 µM
Structure (SMILES): O=C(C=Cn1cnc(-c2cc(C(F)(F)F)cc(C(F)(F)F)c2)n1)NNc1cnccn1 + Cc1ccccc1N=Nc1ccc(NC(=O)c2ccnn2C)c(C)c1
viability, T/C (second compound 0.1 µM, first compound 0.00949 µM): 109% | viability, T/C (second compound 0.1 µM, first compound 0.03 µM): 91.2% | viability, T/C (second compound 0.1 µM, first compound 0.0949 µM): 110% | viability, T/C (second compound 0.1 µM, first compound 0.3 µM): 86.7% | viability, T/C (second compound 0.1 µM, first compound 0.949 µM): 96% | viability, T/C (second compound 0.1 µM, first compound 3 µM): 61% | viability, T/C (second compound 0.316 µM, first compound 0.00949 µM): 104% | viability, T/C (second compound 0.316 µM, first compound 0.03 µM): 113% | viability, T/C (second compound 0.316 µM, first compound 0.0949 µM): 111% | viability, T/C (second compound 0.316 µM, first compound 0.3 µM): 96.4% | viability, T/C (second compound 0.316 µM, first compound 0.949 µM): 87.3% | viability, T/C (second compound 0.316 µM, first compound 3 µM): 76.8% | viability, T/C (second compound 1 µM, first compound 0.00949 µM): 97.8% | viability, T/C (second compound 1 µM, first compound 0.03 µM): 98.3% | viability, T/C (second compound 1 µM, first compound 0.0949 µM): 116% | viability, T/C (second compound 1 µM, first compound 0.3 µM): 100% | viability, T/C (second compound 1 µM, first compound 0.949 µM): 78% | viability, T/C (second compound 1 µM, first compound 3 µM): 77.8% | viability, T/C (second compound 3.16 µM, first compound 0.00949 µM): 98% | viability, T/C (second compound 3.16 µM, first compound 0.03 µM): 99.1% | viability, T/C (second compound 3.16 µM, first compound 0.0949 µM): 92.8% | viability, T/C (second compound 3.16 µM, first compound 0.3 µM): 86.8% | viability, T/C (second compound 3.16 µM, first compound 0.949 µM): 93.2% | viability, T/C (second compound 3.16 µM, first compound 3 µM): 70.8% | viability, T/C (second compound 10 µM, first compound 0.00949 µM): 101% | viability, T/C (second compound 10 µM, first compound 0.03 µM): 85% | viability, T/C (second compound 10 µM, first compound 0.0949 µM): 85.3% | viability, T/C (second compound 10 µM, first compound 0.3 µM): 108% | viability, T/C (second compound 10 µM, first compound 0.949 µM): 85.6% | viability, T/C (second compound 10 µM, first compound 3 µM): 50.2%

IC50 (curve of compound): > 10 µM
Structure (SMILES): CC(C)c1c(-c2ccccc2)nc2c(C#N)c[nH]n2c1=O
viability, T/C (compound 0.0316 µM): 101% and 108% and 114% | viability, T/C (compound 0.1 µM): 105% (2×) and 103% | viability, T/C (compound 0.316 µM): 107% and 96% and 113% | viability, T/C (compound 1 µM): 94% and 102% and 93.5% | viability, T/C (compound 3.16 µM): 98.7% and 110% and 117% | viability, T/C (compound 10 µM): 117% and 124% and 105%

IC50 (curve of compound): 0.0158 µM and 0.0173 µM and 0.0113 µM
Structure (SMILES): CC(C)CC(NC(=O)C(Cc1ccccc1)NC(=O)c1cnccn1)B(O)O (centres undefined)
viability, T/C (compound 0.000949 µM): 104% and 97.6% and 89.6% | viability, T/C (compound 0.003 µM): 113% and 111% and 104% | viability, T/C (compound 0.00949 µM): 87.6% and 93.6% and 59.1% | viability, T/C (compound 0.03 µM): 3.07% and 10.3% and 0.16% | viability, T/C (compound 0.0949 µM): 0.13% and 0.15% and 0.11% | viability, T/C (compound 0.3 µM): 0.19% and 0.2% and 0.18%
